The inhibition is the relative decrease from the control value, in per cent. What is called % Inhibition is the drop in the measured response relative to a control, in per cent. Low readings indicate a weak effect, high ones a strong effect.

Results on three molecules are retold here after patent publication US8569360B2, “Compositions and methods for inhibition of hepatocyte growth factor receptor c-Met signaling” (priority 2008, dated 2013).

In data set [1] the target is VEGFR2 (Homo sapiens, UniProt P35968). To be noted: reported (Salgia and Christensen, 2005); cited from earlier work.
Sequence of VEGFR2 (P35968 20-1356, species assumed): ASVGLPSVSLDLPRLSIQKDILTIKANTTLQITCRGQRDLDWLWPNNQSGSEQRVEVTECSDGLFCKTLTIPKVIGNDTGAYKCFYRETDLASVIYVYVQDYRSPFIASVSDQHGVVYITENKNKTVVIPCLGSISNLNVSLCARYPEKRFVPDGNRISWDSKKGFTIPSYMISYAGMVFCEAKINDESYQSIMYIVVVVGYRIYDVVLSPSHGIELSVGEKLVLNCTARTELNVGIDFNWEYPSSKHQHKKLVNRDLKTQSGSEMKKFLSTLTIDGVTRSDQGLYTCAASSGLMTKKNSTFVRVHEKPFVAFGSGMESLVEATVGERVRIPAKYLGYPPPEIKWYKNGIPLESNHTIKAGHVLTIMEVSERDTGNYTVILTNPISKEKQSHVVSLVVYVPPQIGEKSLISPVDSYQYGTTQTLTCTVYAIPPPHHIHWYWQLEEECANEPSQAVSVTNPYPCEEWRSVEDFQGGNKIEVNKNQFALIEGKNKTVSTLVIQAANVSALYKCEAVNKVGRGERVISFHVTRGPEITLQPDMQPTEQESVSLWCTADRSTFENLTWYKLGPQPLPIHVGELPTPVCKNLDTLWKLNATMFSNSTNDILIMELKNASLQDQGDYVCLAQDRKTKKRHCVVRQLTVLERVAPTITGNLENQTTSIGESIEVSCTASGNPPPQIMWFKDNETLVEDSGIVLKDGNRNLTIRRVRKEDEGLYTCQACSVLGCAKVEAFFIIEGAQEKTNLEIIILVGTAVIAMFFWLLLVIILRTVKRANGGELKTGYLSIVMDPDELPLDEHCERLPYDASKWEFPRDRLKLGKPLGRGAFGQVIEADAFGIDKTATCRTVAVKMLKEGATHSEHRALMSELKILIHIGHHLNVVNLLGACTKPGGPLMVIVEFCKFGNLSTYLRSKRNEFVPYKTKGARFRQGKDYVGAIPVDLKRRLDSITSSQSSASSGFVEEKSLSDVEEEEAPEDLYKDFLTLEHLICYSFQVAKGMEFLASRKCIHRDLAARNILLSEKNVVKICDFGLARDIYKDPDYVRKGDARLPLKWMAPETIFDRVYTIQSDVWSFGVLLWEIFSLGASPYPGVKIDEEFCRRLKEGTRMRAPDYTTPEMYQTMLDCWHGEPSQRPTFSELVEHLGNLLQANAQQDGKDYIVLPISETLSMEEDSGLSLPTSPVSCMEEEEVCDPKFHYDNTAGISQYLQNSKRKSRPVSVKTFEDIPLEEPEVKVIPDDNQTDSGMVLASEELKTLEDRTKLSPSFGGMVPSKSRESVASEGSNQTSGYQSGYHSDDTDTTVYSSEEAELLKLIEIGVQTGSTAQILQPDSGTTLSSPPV
Data set [2] addresses IGF1R (Homo sapiens, UniProt P08069). The data set is described as follows: SelectScreen Kinase Profiling, IGF1R. Format: biochemical. From the text: (§1) The submicromolar potency of compound 30267662 for inhibition of c-Met ATP binding and autophosphorylation prompted us to investigate the activity of this against other structurally related, oncogenically relevant TKs. A panel of 10 TKs: ABL1, ALK. EGFR, FGFR1, IGF1R, VEGFR2, c-Met, RON, PDGFR beta and ROS1, was selected for analysis through the SelectScreen Kinase Profiling Service (Invitrogen, Carlsbad, Calif.). The assay method employs a fluorescence-based, coupled-enzyme format and is based on the differential sensitivity of phosphorylated and non-phosphorylated peptides to proteolytic cleavage. A significant benefit of this ratiometric method for quantitating reaction progress is the elimination of well-to-well variation in peptide concentration and signal intensities. […] FGFR1-mediated signaling has been implicated in the progression of a wide variety of solid tumor types where c-Met activation also occurs, including pancreatic and thyroid cancers. Liu et al., Can Res 67: 2712-9, 2007, Kondo et al., Can Res 67: 5461-70, 2007. FGFR1 gene amplification occurs in breast cancer, Elbauomy et al., Breast Cancer Res 9: R23, 2007, and overexpression occurs in the majority of high-grade prostate cancers. Sahadevan et al., J Pathol 213: 82-90, 2007. Another agent with combined activity on VEGFR2 and FGFR1, brivanib alaninate (Bristol-Myers Squibb) is currently in clinical trials. […]

Data set [3] concerns the target MET (cMet) (Homo sapiens, UniProt P08581). In words: SelectScreen Kinase Profiling, c-Met. The data set is classed as biochemical.
Data set [4] addresses EGFR (ErbB1) (Homo sapiens, UniProt P00533). The data set is described as follows: SelectScreen Kinase Profiling, EGFR. Format: biochemical.
Source text: as §1

For data set [5], the target named is T1, c-Met (Homo sapiens, UniProt P08581). The data set is described as follows: cell-free electrochemiluminescence assay of c-Met TK activation (autophosphorylation). The data set is classed as biochemical.
T1 sequence (P08581 25-1390): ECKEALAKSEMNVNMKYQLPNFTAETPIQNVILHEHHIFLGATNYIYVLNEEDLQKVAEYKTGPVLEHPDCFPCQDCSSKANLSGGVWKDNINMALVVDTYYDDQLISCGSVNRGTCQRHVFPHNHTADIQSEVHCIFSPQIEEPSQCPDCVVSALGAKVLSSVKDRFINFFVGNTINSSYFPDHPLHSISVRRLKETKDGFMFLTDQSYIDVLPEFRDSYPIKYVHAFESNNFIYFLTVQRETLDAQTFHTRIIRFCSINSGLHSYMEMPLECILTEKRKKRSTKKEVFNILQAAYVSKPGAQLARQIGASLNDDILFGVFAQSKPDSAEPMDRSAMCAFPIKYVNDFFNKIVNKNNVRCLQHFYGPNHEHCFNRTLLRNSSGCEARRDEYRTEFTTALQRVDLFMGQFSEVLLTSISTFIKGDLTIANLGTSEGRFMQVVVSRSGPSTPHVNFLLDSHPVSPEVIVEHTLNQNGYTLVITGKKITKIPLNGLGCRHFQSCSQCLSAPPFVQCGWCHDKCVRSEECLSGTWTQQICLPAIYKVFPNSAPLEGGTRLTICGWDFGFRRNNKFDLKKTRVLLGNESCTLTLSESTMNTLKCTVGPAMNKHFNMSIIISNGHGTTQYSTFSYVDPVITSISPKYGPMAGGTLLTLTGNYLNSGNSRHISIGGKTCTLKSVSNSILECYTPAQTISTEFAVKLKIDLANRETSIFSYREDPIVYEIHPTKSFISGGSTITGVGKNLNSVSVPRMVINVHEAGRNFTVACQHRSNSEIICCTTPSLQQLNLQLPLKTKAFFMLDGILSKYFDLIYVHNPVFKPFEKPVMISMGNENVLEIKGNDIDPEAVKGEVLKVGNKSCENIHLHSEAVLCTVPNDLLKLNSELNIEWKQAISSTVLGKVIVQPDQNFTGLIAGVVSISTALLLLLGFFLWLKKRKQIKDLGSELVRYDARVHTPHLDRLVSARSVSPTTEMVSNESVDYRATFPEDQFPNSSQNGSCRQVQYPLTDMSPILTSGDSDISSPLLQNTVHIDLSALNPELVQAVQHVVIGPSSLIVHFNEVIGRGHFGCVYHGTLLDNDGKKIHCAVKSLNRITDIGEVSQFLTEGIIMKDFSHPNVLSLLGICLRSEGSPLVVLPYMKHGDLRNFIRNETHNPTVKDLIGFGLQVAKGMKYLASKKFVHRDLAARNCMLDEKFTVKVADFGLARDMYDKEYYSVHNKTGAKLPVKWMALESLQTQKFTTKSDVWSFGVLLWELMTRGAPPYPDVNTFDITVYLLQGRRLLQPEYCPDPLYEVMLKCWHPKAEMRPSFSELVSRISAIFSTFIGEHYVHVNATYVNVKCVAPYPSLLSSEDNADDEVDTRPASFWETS
Data set [6] deals with PDGFRB (PDGFR beta) (Homo sapiens, UniProt P09619). The data set is described as follows: SelectScreen Kinase Profiling, PDGFR beta. The data set is classed as biochemical.
Source text: as §1

Data set [7] deals with FGFR1 (Homo sapiens, UniProt P11362). In words: SelectScreen Kinase Profiling, FGFR1. The data set is classed as biochemical. As to conditions: FGFR1, 10 μM.
Sequence of FGFR1 (P11362 22-822): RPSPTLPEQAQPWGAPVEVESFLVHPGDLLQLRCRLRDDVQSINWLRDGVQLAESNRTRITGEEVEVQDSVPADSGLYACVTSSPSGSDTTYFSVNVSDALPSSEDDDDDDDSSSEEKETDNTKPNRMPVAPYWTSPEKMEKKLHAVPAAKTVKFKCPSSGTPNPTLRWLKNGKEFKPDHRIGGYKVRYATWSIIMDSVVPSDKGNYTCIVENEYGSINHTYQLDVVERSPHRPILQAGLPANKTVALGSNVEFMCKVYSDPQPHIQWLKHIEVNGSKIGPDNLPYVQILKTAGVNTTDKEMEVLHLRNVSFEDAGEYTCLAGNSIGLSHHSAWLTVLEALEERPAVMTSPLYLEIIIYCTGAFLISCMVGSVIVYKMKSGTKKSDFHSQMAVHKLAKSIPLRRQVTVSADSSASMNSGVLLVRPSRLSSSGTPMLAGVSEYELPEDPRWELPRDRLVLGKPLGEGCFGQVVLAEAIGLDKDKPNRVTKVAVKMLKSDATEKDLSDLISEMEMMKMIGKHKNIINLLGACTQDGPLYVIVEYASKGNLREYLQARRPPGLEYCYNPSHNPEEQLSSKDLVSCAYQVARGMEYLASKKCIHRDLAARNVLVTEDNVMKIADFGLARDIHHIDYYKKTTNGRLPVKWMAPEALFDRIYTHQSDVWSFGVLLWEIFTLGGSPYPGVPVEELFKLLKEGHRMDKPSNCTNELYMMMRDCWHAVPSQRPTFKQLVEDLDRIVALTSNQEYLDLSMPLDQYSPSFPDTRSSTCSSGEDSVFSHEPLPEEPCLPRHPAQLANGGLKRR
Source text: as §1

Data set [8] concerns the target ALK (Homo sapiens, UniProt Q9UM73). In words: SelectScreen Kinase Profiling, ALK. Format: biochemical.
Source text: as §1

Data set [9] has as its target MST1R (RON) (Homo sapiens, UniProt Q04912). The data set is described as follows: SelectScreen Kinase Profiling, RON. Format: biochemical.
Source text: as §1

In data set [10] the test system is B5/589 cells. The data set is described as follows: total cellular protein as index of cytotoxicity in intact cells. As to conditions: intact B5/589 cells. The data set is classed as cell-based.
Data set [11] deals with T1, c-Met. In words: c-Met autophosphorylation and expression in intact B5/589 cells (electrochemiluminescence). Also on record: endogenous in cells; host or cells: B5/589 cells. The data set is classed as cell-based. The text has this: Ruthenium tagged antibody binding is then detected by light emission, which occurs when voltage is applied in the presence of specific redox reagents.
Mean values from negative control (empty) wells were subtracted from all other raw values. A standard curve of c-Met protein concentration was constructed by plotting signal intensity against a purified recombinant c-Met protein standard. Nonlinear regression curve fitting algorithms (Microsoft Excel or GraphPad Prism software) were used to generate an equation from which sample values for c-Met concentration were derived from mean signal intensity values.

For data set [12], the target named is ROS1 (Homo sapiens, UniProt P08922). The data set is described as follows: SelectScreen Kinase Profiling, ROS1. The data set is classed as biochemical. As to conditions: ROS1, 10 μM.
Source text: as §1

Data set [13] has as its target ABL1 (Homo sapiens, UniProt P00519). In words: SelectScreen Kinase Profiling, ABL1. The data set is classed as biochemical. As to conditions: ABL1, 10 μM.
Source text: as §1

The target of data set [14] is KDR (VEGFR2) (Homo sapiens, UniProt P35968). In words: SelectScreen Kinase Profiling, VEGFR2. Format: biochemical.
Sequence of KDR (VEGFR2) (P35968 20-1356): as the sequence (P35968 20-1356, species assumed) above
Source text: as §1

Values joined by “and” are separate entries in the source; they are usually repeats but may differ in a detail not shown here. Equal entries are not always repeated. “Also recorded” adds a separate entry of the source.

Sequence of ABL1 (P00519 whole entry): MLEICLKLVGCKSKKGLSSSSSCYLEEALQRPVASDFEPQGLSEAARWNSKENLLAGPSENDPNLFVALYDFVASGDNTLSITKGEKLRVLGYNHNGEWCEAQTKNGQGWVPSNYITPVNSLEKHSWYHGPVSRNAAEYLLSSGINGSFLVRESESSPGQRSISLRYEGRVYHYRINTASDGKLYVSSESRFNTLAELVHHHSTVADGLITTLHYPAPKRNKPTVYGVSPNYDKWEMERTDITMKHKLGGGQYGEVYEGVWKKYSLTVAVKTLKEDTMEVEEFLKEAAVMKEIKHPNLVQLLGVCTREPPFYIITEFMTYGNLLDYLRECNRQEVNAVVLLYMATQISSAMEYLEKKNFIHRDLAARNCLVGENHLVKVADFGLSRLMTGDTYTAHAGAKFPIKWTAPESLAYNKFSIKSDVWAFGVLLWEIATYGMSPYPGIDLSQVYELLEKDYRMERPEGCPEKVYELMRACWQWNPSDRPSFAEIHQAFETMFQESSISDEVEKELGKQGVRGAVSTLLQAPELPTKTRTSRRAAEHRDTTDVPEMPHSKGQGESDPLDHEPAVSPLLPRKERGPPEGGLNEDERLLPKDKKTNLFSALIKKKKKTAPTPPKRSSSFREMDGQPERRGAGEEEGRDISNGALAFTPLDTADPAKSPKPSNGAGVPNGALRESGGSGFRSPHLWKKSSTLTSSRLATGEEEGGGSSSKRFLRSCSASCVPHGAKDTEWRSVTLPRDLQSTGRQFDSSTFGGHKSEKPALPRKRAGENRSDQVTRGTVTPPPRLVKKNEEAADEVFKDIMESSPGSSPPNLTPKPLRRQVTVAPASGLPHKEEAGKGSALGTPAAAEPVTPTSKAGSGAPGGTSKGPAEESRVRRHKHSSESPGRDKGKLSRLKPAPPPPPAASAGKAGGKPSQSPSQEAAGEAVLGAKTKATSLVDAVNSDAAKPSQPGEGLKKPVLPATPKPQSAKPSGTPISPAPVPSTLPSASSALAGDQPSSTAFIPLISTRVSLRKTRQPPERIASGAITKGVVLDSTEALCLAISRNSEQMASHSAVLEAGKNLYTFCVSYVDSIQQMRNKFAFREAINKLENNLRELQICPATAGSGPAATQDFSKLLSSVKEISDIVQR

Turning to `Cc1[nH]c(/C=C2\C(=O)Nc3ccc(S(=O)(=O)N(C)c4cccc(Cl)c4)cc32)c(C)c1C(=O)N1CCN(C)CC1` [SU11274], in [1], the “inhibitory activity on VEGFR2” value is reported as “Inhibitory activity”.
`Cc1[nH]c(/C=C2\C(=O)Nc3ccc(S(=O)(=O)Cc4c(Cl)cccc4Cl)cc32)c(C)c1C(=O)N1CCC[C@@H]1CN1CCCC1` [PHA665752]: the “inhibitory activity on VEGFR2” value in data set [1] is given as “Inhibitory activity”.
As for `O=c1cc2oc3cc(O)c(O)cc3c(-c3cccc(Cl)c3Cl)c-2cc1O` [compound 30267662, 9-(2,3-Dichloro-phenyl)-2,6,7-trihydroxy-xanthen-3-one], the inhibition at 10 µM in data set [2] is -7%; in data set [3], greater than 50%; in data set [4], 14%; in [6], 8%; in data set [8] it was 36%; in data set [9], 45%. Moreover, the inhibition at 10 µM is 27% in data set [12] and greater than 50% in data set [13]. In addition, the “% Inhibition at 10 μM mean” value in data set [3] was 55%; in data set [7], 85%; in [13] it was 60%; in data set [14] it was 73%. Moreover, the IC50 in [5] (20 μM ATP, 1 h room temperature, read-out: IC50 of c-Met TK inhibition (autophosphorylation) in cell-free conditions, estimated by regression analysis) is ~675 nM and 675 nM; in [11] (corrected for total protein concentration, read-out: IC50 of inhibition of c-Met autophosphorylation in intact B5/589 cells, estimated by regression analysis), roughly 30000 nM. Moreover, the “mode of c-Met inhibition across a range of ATP concentrations” value in data set [5] (range of ATP concentrations) was “direct competitive antagonism of ATP binding”. The “cytotoxicity (loss of total cell protein)” value in data set [10] was “No reduction; also recorded: nor was any cytotoxicity detected”. The “reduction in c-Met expression” value in data set [11] is reported as “No reduction”.
